# Assay results from US8946266B2, “Substituted triazole and imidazole derivatives as gamma secretase modulators” (Janssen Pharmaceuticals, Inc., priority 2009, dated 2015).
# Where a name gives a salt, the structure may show the parent alone.
# What was measured:
# [1] = system: Aβ42; assay: γ-secretase-modulating activity, Method 2: Aβ42 Alphalisa in supernatant of SKNBE2 cells carrying APP 695-wild type (Table 3b); format: cell-based; conditions: overnight
# Outline: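 SKNBE2 cells expressing wild-type APP695 were incubated overnight at 37° C. with test compound. Secreted Aβ42 was then measured by AlphaLISA, using a C-terminal Aβ42 antibody paired with an N-terminal Aβ antibody. IC50 came from a 4-parameter fit of percent of compound-free control.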
# [2] = system: Aβtotal; assay: γ-secretase-modulating activity, Method 2: Aβtotal Alphalisa in supernatant of SKNBE2 cells carrying APP 695-wild type (Table 3b); format: cell-based; conditions: overnight, read-out: IC50 Aβtot
# Outline: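 SKNBE2 cells expressing wild-type APP 695 were incubated overnight at 37 °C, 5% CO2 with test compound at a range of concentrations. Aβtotal in supernatant was measured by AlphaLISA sandwich (N-terminal JRF/AβN/25 acceptor, biotinylated mid-region 4G8 donor); IC50 from 4-parameter fit of percent control versus log concentration.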
# [3] = system: Aβ42; assay: In vivo efficacy, Method 2: brain soluble Aβ42 lowering 4 h after a single oral dose, ELISA (Table 4b); parameters: species or system mouse; conditions: dose 30 mg/kg oral dosing
# From the text: (§1) To determine whether acute administration of an Aβ42 lowering agent would reduce Aβ42 levels in vivo, non-transgenic rodents, e.g. mice or rats were used. Animals treated with the Aβ42 lowering agent were examined and compared to those untreated or treated with vehicle and brain levels of soluble Aβ42 and total Aβ were quantitated by standard techniques, for example, using ELISA. Treatment periods varied from hours (h) to days and were adjusted based on the results of the Aβ42 lowering once a time course of onset of effect could be established.
# (§2) A typical protocol for measuring Aβ42 lowering in vivo is shown but it is only one of many variations that could be used to optimize the levels of detectable Aβ. For example, Aβ42 lowering compounds were formulated in 20% of Captisol® (a sulfobutyl ether of β-cyclodextrin) in water or 20% hydroxypropyl β cyclodextrin. The Aβ42 lowering agents were administered as a single oral dose or by any acceptable route of administration to overnight fasted animals. After 4 h, the animals were sacrificed and Aβ42 levels were analysed.
# (§3) Blood was collected by decapitation and exsanguinations in EDTA-treated collection tubes. Blood was centrifuged at 1900 g for 10 minutes (min) at 4° C. and the plasma recovered and flash frozen for later analysis. The brain was removed from the cranium and hindbrain. The cerebellum was removed and the left and right hemisphere were separated. The left hemisphere was stored at −18° C. for quantitative analysis of test compound levels. The right hemisphere was rinsed with phosphate-buffered saline (PBS) buffer and immediately frozen on dry ice and stored at −80° C. until homogenization for biochemical assays.
# (§4) Mouse brains from non-transgenic animals were resuspended in 8 volumes of 0.4% DEA (diethylamine)/50 mM NaCl containing protease inhibitors (Roche-11873580001 or 04693159001) per gram of tissue, e.g. for 0.158 g brain, add 1.264 ml of 0.4% DEA. All samples were homogenized in the FastPrep-24 system (MP Biomedicals) using lysing matrix D (MPBio #6913-100) at 6 m/s for 20 seconds. Homogenates were centrifuged at 221.300×g for 50 min. The resulting high speed supernatants were then transferred to fresh eppendorf tubes. Nine parts of supernatant were neutralized with 1 part 0.5 M Tris-HCl pH 6.8 and used to quantify Aβtotal and Aβ42.
# (§5) To quantify the amount of Aβtotal and Aβ42 in the soluble fraction of the brain homogenates, Enzyme-Linked-Immunosorbent-Assays were used. Briefly, the standards (a dilution of synthetic Aβ1-40 and Aβ1-42, Bachem) were prepared in 1.5 ml Eppendorf tube in Ultraculture, with final concentrations ranging from 10000 to 0.3 pg/ml. The samples and standards were co-incubated with HRPO-labelled N-terminal antibody for Aβ42 detection and with the biotinylated mid-domain antibody 4G8 for Aβtotal detection. 50 μl of conjugate/sample or conjugate/standards mixtures were then added to the antibody-coated plate (the capture antibodies selectively recognize the C-terminal end of Aβ42, antibody JRF/cAβ42/26, for Aβ42 detection and the N-terminus of Aβ, antibody JRF/rAβ/2, for Aβtotal detection). The plate was allowed to incubate overnight at 4° C. in order to allow formation of the antibody-amyloid complex. Following this incubation and subsequent wash steps the ELISA for Aβ42 quantification was finished by addition of Quanta Blu fluorogenic peroxidase substrate according to the manufacturer's instructions (Pierce Corp., Rockford, Ill.). A reading was performed after 10 to 15 min (excitation 320/emission 420).
# In this model at least 20% Aβ42 lowering compared to untreated animals would be advantageous.
# (§6) The results are shown in Table 4b (dose 30 mg/kg oral dosing): […]
# [4] = system: Aβtotal; assay: In vivo efficacy, Method 2: brain soluble Aβtotal lowering 4 h after a single oral dose, ELISA (Table 4b); parameters: species or system mouse; conditions: dose 30 mg/kg oral dosing
# From the text: as §1, §2, §3, §4, §5
# For Aβtotal detection, a Streptavidine-Peroxidase-Conjugate was added, followed 60 min later by an additional wash step and addition of Quanta Blu fluorogenic peroxidase substrate according to the manufacturer's instructions (Pierce Corp., Rockford, Ill.). A reading was performed after 10 to 15 min (excitation 320 nm/emission 420 nm).
# as §6
SMILES,melting point [°C],IC50 [1] [nM],IC50 [2] [nM],Aβ42 (% Ctrl) _Mean [3] [% Ctrl],Aβtotal (% Ctrl) _Mean [4] [% Ctrl]
COc1cc(-c2nc(Sc3cccc(C(F)(F)F)c3)n(C)n2)ccc1-n1cnc(C)c1 (as salt: HCl) (hydrate or solvate) [Compound 249],78.4,,,,
COc1cc(-c2nc(Nc3cc(C(F)(F)F)ccc3F)n(C)n2)ccc1-n1cnc(C)c1 [Compound 162],,11,3630,35,2
COc1cc(-c2nc(Nc3cc(Br)ccc3F)n(C)n2)ccc1-n1cnc(C)c1 [Compound 303],,40,> 10000,33,23
COc1nc(-c2nc(Nc3cccc(F)c3C(F)(F)F)n(C)n2)ccc1-n1cnc(C)c1 [Compound 138],,50,> 10000,46,17
COc1cc(-c2nc3n(n2)CCC[C@H]3c2ccc(F)cc2C)ccc1-n1cnc(C)c1.Cl [Compound 315],,29,> 10000,49,10
COc1nc(-c2nc3n(n2)CCCC3c2cc(C(F)(F)F)ccc2C)ccc1-n1cnc(C)c1 (stereo not drawn) [Compound 343],,15,> 10000,64,18
COc1nc(-c2nc(Nc3ccccc3C(F)(F)F)n(C)n2)ccc1-n1cnc(C)c1 [Compound 132],,135,> 10000,39,−1
COc1cc(-c2nc(Nc3cccc(Cl)c3C(F)(F)F)n(C)n2)ccc1-n1cnc(C)c1 [Compound 169],,41,> 10000,57,9
COc1c(-n2cnc(C)c2)ccc(-c2nc(Nc3cc(C(F)(F)F)ccc3F)n(C)n2)c1F [Compound 320],,45,> 10000,23,8
COc1cc(-c2nc3n(n2)CCC[C@H]3c2ccccc2Cl)ccc1-n1cnc(C)c1 [Compound 255],,32,9330,21,11
COc1nc(-c2nc(Nc3ccc(F)cc3C(F)(F)F)n(C)n2)ccc1-n1cnc(C)c1 [Compound 158],,40,> 10000,44,3
COc1cc(-c2nc(Nc3ccccc3F)n(C)n2)ccc1-n1cnc(C)c1 [Compound 105],,132,> 10000,24,−7
COc1cc(-c2nc(Nc3cc(C(F)(F)F)ccc3F)n(CC(C)(C)O)n2)ccc1-n1cnc(C)c1 [Compound 136],,76,3020,−14,1
Cc1cn(-c2ccc(-c3nc(Nc4cc(C(F)(F)F)ccc4F)n(C)n3)cc2C#N)cn1 [Compound 322],,36,> 15000,−5,−4
COc1nc(-c2nc3n(n2)CCC[C@H]3c2ccccc2C(F)(F)F)ccc1-n1cnc(C)c1 [Compound 263],,29,> 10000,62,12
